The data set in a line: physchem. The following applies: pH 7.6, aqueous with cosolvent or surfactant or cyclodextrin, kinetic from dmso stock.

Broadly, the solubility is the concentration that dissolves in the medium under given conditions. Low readings indicate a poorly soluble substance, high ones a readily soluble substance. With `COc1ccccc1N1CCN(C(=O)c2ccc3c(c2)NC(=O)C(CSCc2ccccc2C)N3)CC1` (stereo not shown) [Compound 4], the solubility was no more than 50 µM.

For the origin of these results see PMC4090677 (Frontiers in Immunology, 2014).
